Measured values: paper PMC4450297, “Screening Active Compounds from Garcinia Species Native to China Reveals Novel Compounds Targeting the STAT/JAK Signaling Pathway” (BioMed Research International, 2015)

Legend:
Assay in all cases: Cell panel screen (CellTiter-Glo)
Type in all cases: cell-based, human
Colo 205 = settings: Colo 205, 20 micromolar, 72 hrs
Summary of the method: (§1)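 Luminescence from luciferase-driven ATP detection gave the read-out. Compounds were tested at a single final concentration of 20 μM for 72 h, and inhibition was expressed as a percentage of the untreated signal after background correction.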

ZR-75-30 = ZR-75-30 (Breast), 20 micromolar, 72 hrs
Summary of the method: as §1

HPAF-II = HPAF-II (Pancreas), 20 micromolar, 72 hrs
Summary of the method: as §1

RL95 = RL95 (Uterus), 20 micromolar, 72 hrs
Summary of the method: as §1

HCC1395 = HCC1395 (Breast), 20 micromolar, 72 hrs
Summary of the method: as §1

Bel-7402 = Bel-7402 (Liver), 20 micromolar, 72 hrs
Summary of the method: as §1

HCC1599 = HCC1599 (Breast), 20 micromolar, 72 hrs
Summary of the method: as §1

C3A = C3A (Liver), 20 micromolar, 72 hrs
Summary of the method: as §1

A498 = A498 (listed under Lung), 20 micromolar, 72 hrs
Summary of the method: as §1

NCI-H28 = NCI-H28 (Lung), 20 micromolar, 72 hrs
Summary of the method: as §1

NCI-H1623 = NCI-H1623 (Lung), 20 micromolar, 72 hrs
Summary of the method: as §1

BT-549 = BT-549 (Breast), 20 micromolar, 72 hrs
Summary of the method: as §1

HCC1937 = HCC1937 (Breast), 20 micromolar, 72 hrs
Summary of the method: as §1

ChaGo-K-1 = ChaGo-K-1 (Lung), 20 micromolar, 72 hrs
Summary of the method: as §1

NCI-H1694 = NCI-H1694 (Lung), 20 micromolar, 72 hrs
Summary of the method: as §1

A704 = A704 (Kidney), 20 micromolar, 72 hrs
Summary of the method: as §1

HT-1197 = HT-1197 (Urinary bladder), 20 micromolar, 72 hrs
Summary of the method: as §1

NCI-H2347 = NCI-H2347 (Lung), 20 micromolar, 72 hrs
Summary of the method: as §1

M059J = M059J (Brain), 20 micromolar, 72 hrs
Summary of the method: as §1

HCC1569 = HCC1569 (Breast), 20 micromolar, 72 hrs
Summary of the method: as §1

TCCSUP = TCCSUP (Urinary bladder), 20 micromolar, 72 hrs
Summary of the method: as §1

CW-2 = CW-2 (Colon), 20 micromolar, 72 hrs
Summary of the method: as §1

HEC-1-A = HEC-1-A (Uterus), 20 micromolar, 72 hrs
Summary of the method: as §1

BT-474 = BT-474 (Breast), 20 micromolar, 72 hrs
Summary of the method: as §1

SW13 = SW13 (Adrenal gland), 20 micromolar, 72 hrs
Summary of the method: as §1

NCI-H1770 = NCI-H1770 (Lung), 20 micromolar, 72 hrs
Summary of the method: as §1

NCI-H2405 = NCI-H2405 (Lung), 20 micromolar, 72 hrs
Summary of the method: as §1

HGC-27 = HGC-27 (Stomach), 20 micromolar, 72 hrs
Summary of the method: as §1

T47D = T47D (Breast), 20 micromolar, 72 hrs
Summary of the method: as §1

Panc 03.27 = Panc 03.27 (Pancreas), 20 micromolar, 72 hrs
Summary of the method: as §1

T98G = T98G (Brain), 20 micromolar, 72 hrs
Summary of the method: as §1

C8166 = C8166 (Leukemia), 20 micromolar, 72 hrs
Summary of the method: as §1

MSTO-211-H = MSTO-211-H (Lung), 20 micromolar, 72 hrs
Summary of the method: as §1

NCI-H524 = NCI-H524 (Lung), 20 micromolar, 72 hrs
Summary of the method: as §1

CCF-STTG1 = CCF-STTG1 (Brain), 20 micromolar, 72 hrs
Summary of the method: as §1

J82 = J82 (Urinary bladder), 20 micromolar, 72 hrs
Summary of the method: as §1

Structure (SMILES)	Percent Inhibition (Colo 205) [%]	Percent Inhibition (ZR-75-30) [%]	Percent Inhibition (HPAF-II) [%]	Percent Inhibition (RL95) [%]	Percent Inhibition (HCC1395) [%]	Percent Inhibition (Bel-7402) [%]	Percent Inhibition (HCC1599) [%]	Percent Inhibition (C3A) [%]	Percent Inhibition (A498) [%]	Percent Inhibition (NCI-H28) [%]	Percent Inhibition (NCI-H1623) [%]	Percent Inhibition (BT-549) [%]	Percent Inhibition (HCC1937) [%]	Percent Inhibition (ChaGo-K-1) [%]	Percent Inhibition (NCI-H1694) [%]	Percent Inhibition (A704) [%]	Percent Inhibition (HT-1197) [%]	Percent Inhibition (NCI-H2347) [%]	Percent Inhibition (M059J) [%]	Percent Inhibition (HCC1569) [%]	further results
COc1c(CC=C(C)C)c(O)c2c(=O)c3ccc(O)c(O)c3oc2c1CC=C(C)C [gl-9]	97	99	85	98	98	96	95	77	86	86	85	96	94	97	100	88	97	82	92	93	Percent Inhibition (TCCSUP): 96%; Percent Inhibition (CW-2): 99%; Percent Inhibition (HEC-1-A): 85%; Percent Inhibition (BT-474): 94%; Percent Inhibition (SW13): 99%; Percent Inhibition (NCI-H1770): 93%; Percent Inhibition (NCI-H2405): 93%; Percent Inhibition (HGC-27): 97%; Percent Inhibition (T47D): 90%; Percent Inhibition (Panc 03.27): 92%; Percent Inhibition (T98G): 98%; Percent Inhibition (C8166): 96%; Percent Inhibition (MSTO-211-H): 98%; Percent Inhibition (NCI-H524): 99%; Percent Inhibition (CCF-STTG1): 92%; Percent Inhibition (J82): 99%
COc1cc(O)c2c(=O)c3cc4c(c(O)c3oc2c1CC=C(C)C)OC(C)(C)C=C4 [gl-12]	10	54	21	23	22	5	52	7	11	2	5	-2	-7	38	28	3	20	9	27	19	Percent Inhibition (TCCSUP): 11%; Percent Inhibition (CW-2): 28%; Percent Inhibition (HEC-1-A): 13%; Percent Inhibition (BT-474): -2%; Percent Inhibition (SW13): -2%; Percent Inhibition (NCI-H1770): 34%; Percent Inhibition (NCI-H2405): 11%; Percent Inhibition (HGC-27): 34%; Percent Inhibition (T47D): 21%; Percent Inhibition (Panc 03.27): 24%; Percent Inhibition (T98G): 28%; Percent Inhibition (C8166): 25%; Percent Inhibition (MSTO-211-H): -5%; Percent Inhibition (NCI-H524): -2%; Percent Inhibition (CCF-STTG1): 16%; Percent Inhibition (J82): 17%
COc1c(CC=C(C)C)cc2c(=O)c3c(O)cc(O)cc3oc2c1O [gl-16]	57	93	26	45	69	17	67	45	34	41	18	27	50	57	55	9	37	42	33	50	Percent Inhibition (TCCSUP): 63%; Percent Inhibition (CW-2): 55%; Percent Inhibition (HEC-1-A): 46%; Percent Inhibition (BT-474): 16%; Percent Inhibition (SW13): 41%; Percent Inhibition (NCI-H1770): 21%; Percent Inhibition (NCI-H2405): 12%; Percent Inhibition (HGC-27): 58%; Percent Inhibition (T47D): 36%; Percent Inhibition (Panc 03.27): 47%; Percent Inhibition (T98G): 28%; Percent Inhibition (C8166): 77%; Percent Inhibition (MSTO-211-H): 61%; Percent Inhibition (NCI-H524): 56%; Percent Inhibition (CCF-STTG1): 25%; Percent Inhibition (J82): 50%
